One data set has as its system dystrophin. Briefly: Dystrophin immunohistochemistry in skeletal muscle and heart of mdx mice treated with gentamicin. The data set is classed as in vivo. The settings on record: for Dystrophin staining intensity: 7 days. How it is done:
All mice were then sacrificed, their skeletal muscle and their heart were frozen and cryostat sectioned. The presence of dystrophin in these sections was investigated by immunohistochemistry. […] In the untreated mdx muscles, dystrophin immunostaining was observed only in a few revertant fibers (Hoffman et al. 1990). […] The dystrophin staining was less intense in the muscles of mice treated with 1 mg/kg. […] The duration of treatment may vary.

A further data set concerns mdx mice. Briefly: Toxicity signs in mdx mice treated with gentamicin. The data set is classed as in vivo. The source says: Further, any mean by which gentamicin or gentamicin-like or derived molecules can be driven more directly to the site of action is within the scope of this invention.
The next data set relates to CFTR protein. The settings on record: gentamicin 200 mg/mL (so in the source), incubation 18 to 24 hours; Howard et al. 1996; cited from earlier work.

Turning to gentamicin, in the data set on dystrophin (Sub-cutaneous or intra-muscular daily treatments of 7 to 14 days or longer), the “Success of daily treatments of other route or duration” value was “equivalently successful”. For the same substance, the Dystrophin staining intensity entry with dystrophin (mdx mice, I.M. 5 mg/day gentamicin, some muscles) was “as intense as that observed in the normal mouse muscles”; in the data set with dystrophin (mdx mice, I.M. gentamicin, printed 1 mg/kg), “less intense”. In the data set on dystrophin (mdx mice, I.M. gentamicin 1 mg/day or 5 mg/day during 7 days, skeletal muscle and heart cryostat sections), the “Presence of dystrophin by immunohistochemistry” value was “detected by immunohistochemistry on all muscle fibers and all heart muscle cells”. The “Suppression of premature stop codon in vivo” value in the data set with dystrophin (mdx mice, dose of 8 to 40 mg per Kg of body weight per day) is “successfully suppressed the premature stop codon”. Besides, the Toxicity signs result in the data set on mdx mice is listed as “No toxicity signs appeared”. Moreover, in the data set with CFTR protein, the “Suppression of premature stop mutation in CFTR gene (full-length CFTR protein)” value is on record as “permitted to suppress the premature stop mutation”.

(Values after US6475993B2 (Universite Laval, priority 1998, dated 2002).)
